Results reported in article PMC11927960, “Multiparameter ranking of carbazoles for anti-trypanosome lead discovery” (Frontiers in drug discovery, 2024).

Key:
[1] = Plasma pharmacokinetics after single oral dose; format: in vivo, Swiss Webster mice; conditions: Swiss Webster, mouse; for AUC(0-t): female mice values of Table 3, quoted in μM, read-out: AUC0–6h
Procedure: The plasma concentration and tissue distribution of drugs were determined by Absorption Systems. […] Blood and brain samples were obtained at 1, 2, 4, and 6 h post-dosing, and plasma and brain concentrations of the drug were determined using LC-MS/MS. Stock standards for calibration were prepared in a matrix comprising equal volumes of water and mouse blood containing K2-EDTA as an anticoagulant. Working solutions were prepared in 50:50 acetonitrile–water and added to the matrix to final concentrations of 1,000, 500, 100, 50.0, 10.0, 5.00, 1.00, and 0.500 ng/mL for all compounds. Pharmacokinetic parameters were determined using Phoenix WinNonlin (v8.0) software with sparse sampling. Maximum plasma concentration (Cmax) and the time to reach maximum plasma concentration (tmax) were determined from the four data points. The area under the time concentration curve (AUClast) was calculated using the linear trapezoidal rule with calculation to a 6-h data point. Plasma half-life (t1/2) was calculated from 0.693/slope of the terminal elimination phase. Samples below the limit of detection (0.500 ng/mL) were treated as 0.

[2] = tested on: endocytosis of bovine serum albumin (BSA) in Trypanosoma brucei; format: cell-based; conditions: DTC25; Table S3
Procedure: Cells were washed and resuspended in serum-free medium. Trypanosomes were incubated with fluorescent endocytosis ligands transferrin (Tf) or bovine serum albumin (BSA) for 30 min (37 °C). A flow cytometer was used to detect fluorescence intensity per cell. Propidium iodide (PI) was used to stain and gate out non-viable cells. Histograms present fluorescence intensity of Tf-AF488 (A) or BSA-AF647 (B) for every cell (n > 10,000 for each cargo) in DMSO or drug-treated samples. Points on the scatter plot represent mean fluorescence intensities of Tf (C) or BSA (D) from three biological replicates (calculated with FlowJo). Bars indicate mean ± SD. […]
Curaxin or DMSO-treated trypanosomes (5 × 10^5/mL) were washed with serum-free HMI-9 medium (500 uL). […] Cells were transferred to an ice-water bath, washed with cold PBS/G at 4 °C (3,000 g for 5 min), resuspended in PBS/G (500 μL) containing propidium iodide (3 μM), and analyzed on a flow cytometer (Beckman Coulter CytoFLEX S). FlowJo software (FlowJo, LLC) was used to gate trypanosomes based on size and shape (forward and side scatter features), and fluorescence intensity of endocytosed protein was measured in viable cells (negative for propidium iodide uptake). FlowJo software was used to determine the mean fluorescence intensity of each cargo in trypanosomes (at least 10,000 events). […]

T. brucei Lister427 = assay: Delayed trypanocidal assay (6 h exposure, wash-off); format: cell-based, Trypanosoma brucei; conditions: for DTC25 (Figure 1) / DTC50 (Figure 1) / DTC90 (Figure 1): 5 × 10^5/mL, 6 h, wash, 24 h drug-free, unit not given; for DTC50 (concentration causing 50% cidality): 6-h treatment and wash-off
Procedure: Trypanosomes were washed, enumerated with a Coulter Counter, and transferred into a drug-free HMI-9 medium for 24 h in a 24-well plate (1 × 10^5 cells/mL). After 24 h, cells were enumerated with a Coulter counter (see flow-chart). Data obtained were analyzed using GraphPad Prism to determine DTC25, DTC50, and DTC90 values.
Delayed trypanocidal assay
Mid-logarithmic growth-phase T. b. Lister427 were inoculated into HMI-9 medium (5 × 10^5 cell/mL). Cells were incubated with either 0.1% DMSO (vehicle) or serial dilutions of drug in 24-well plates for 6 h at 37 °C/5% CO2, following which trypanosomes were pelleted (3,000 g, 5 min), rinsed with drug-free HMI-9 medium, and cells enumerated with a Coulter counter. Trypanosomes were then inoculated at 1 × 10^5 cells/mL in 24-well-plates or 384-well plates and cultured for 24 h, after which trypanosomes were checked for viability with a hemocytometer and enumerated with a Coulter counter. Each experiment was performed thrice, and non-linear regression graphs plotted with GraphPad Prism were used to obtain DTC50 values ([Bachovchin et al., 2019]).

T. brucei Lister 427 = assay: Effect of 50% serum on curaxin inhibition of trypanosome proliferation; format: cell-based, Trypanosoma brucei; conditions: 20, 35 or 50% FBS; Figure S3
Procedure: HMI-9 medium ([Hirumi and Hirumi, 1989]) was prepared with different final concentrations of fetal bovine serum (FBS) (20, 35, and 50%). T. brucei Lister 427 was cultured in each medium for at least 7 days. […] EC50 measurements were obtained from three independent experiments in each medium.
containing 20%, 35% or 50% FBS
At 0 h, 4x103 trypanosomes/ml in
media with drug; 37°C, 5% CO2
Cells lysed and SYBR green
Hirumi, 1989) was modified to contain 20, 35, or 50% fetal bovine serum (FBS) (total
concentration). T. b. brucei Lister 427 was first cultured in the medium for 7 days.
(50 µL). Plates were incubated for 48 h at 37 °C and 5% CO2, and the proliferation of
trypanosomes was measured using a SYBR green assay (Faria et al., 2015). Each experiment
was performed thrice, and non-linear regression fits to the data were obtained using GraphPad
Prism which was used to calculate EC50 values. The possible statistical significance of the
FBS-medium (control) was determined by Student’s T-test.

[3] = 6 h treatment at 5 × 10^5/mL, wash-off, survival tracked 24 h

Row | Structure (SMILES) | AUC(0-t) [1] | Tmax ([1]; female) | half-life ([1]; female) | Tmax ([1]; male) | half-life ([1]; male) | Endocytosis BSA affected [2] | DTC25 (Figure 1) (T. brucei Lister427) | DTC50 (Figure 1) (T. brucei Lister427) | DTC90 (Figure 1) (T. brucei Lister427) | DTC50 (concentration causing 50% cidality) (T. brucei Lister427) | DTC50 T. brucei Lister427 (T. brucei Lister427; [3]) | DTC90 T. brucei Lister427 (T. brucei Lister427; [3]) | Effect of serum on anti-trypanosome potency (T. brucei Lister 427) | DTC25 T. brucei Lister427 (T. brucei Lister427; [3])
1 | CC(=O)c1cc2c3cc(C(C)=O)c(O)cc3n(CCCN(C)C)c2cc1O [CBL0174, 1-[6-acetyl-9-[3-(dimethylamino)propyl]-2,7-dihydroxy-carbazol-3-yl]ethanone] | 3.14 ± 0.25 µM·h | 1 h | 3.61 h | 1 h | 4.33 h | No | 48 | 110 | 600 | 0.11 µM | 110 nM | 600 nM | – | –
2 | CC(=O)c1cc2c3cc(C(C)=O)c(O)cc3n(CCNC(C)C)c2cc1O [CBL0187, 1-[6-acetyl-2,7-dihydroxy-9-[2-(isopropylamino)ethyl]carbazol-3-yl]ethanone] | 2.95 ± 0.18 µM·h | 1.5 ± 0.7 h | > 6 h | 2 h | > 6 h | No | 54 | 110 | 550 | 0.11 µM | 110 nM | 550 nM | decreases | 54 nM
